This note sets out measurements from patent US20240041042A1, “1-(PYRIDYL)-5-AZINYLPYRAZOLE DERIVATIVES, AND THEIR USE FOR CONTROL OF UNDESIRED PLANT GROWTH” (Bayer Aktiengesellschaft, priority 2020, published 2024).

Type in all cases: in vivo
For data set [1], the system named is Zea mays (ZEAMX). As to conditions: crop plant compatibility, 80 g/ha, effect vs untreated controls. In a few lines: (§1)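 Visual rating (% effect vs. untreated plants; 100% = plant death) made about 3 weeks after treatment. Plants had been sprayed at one-leaf stage, 2–3 weeks post-sowing, with aqueous WP/EC preparations containing 0.5% additive, 600 l/ha water volume; a, b, c mark dose levels.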

Data set [2] has as its system Triticum aestivum (TRZAS). As to conditions: crop plant compatibility, 80 g/ha, effect vs untreated controls. A digest of the protocol:
as §1

In data set [3] the test system is Oryza sativa (ORYSA). As to conditions: crop plant compatibility, 80 g/ha, effect in comparison to untreated controls. In a few lines:
as §1

Data set [4] relates to Polygonum convolvulus (POLCO). The experiment in a line: Pre-emergence herbicidal action against POLCO. In a few lines: (§2)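 Greenhouse pot trial: seeds sown, soil-covered, sprayed before emergence with compound in water (0.5% additive; 600 l/ha; ≤320 g/ha). Scoring visual, ~3 weeks, 0–100% scale vs untreated.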
For data set [5], the system named is Amaranthus retroflexus (AMARE). The experiment in a line: Post-emergence herbicidal action against AMARE. As to conditions: 320 g/ha, visual rating about 3 weeks after treatment. A digest of the protocol:
(§3)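 Rates were 320 g/ha or below, applied as aqueous WP/EC spray with 0.5% additive (600 l/ha) onto one-leaf-stage plants. About 3 weeks later in the greenhouse, damage was scored visually against untreated plants on a 0–100% scale, where 100% means plants died.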

The test system of data set [6] is Setaria viridis (SETVI). The experiment in a line: Pre-emergence herbicidal action against SETVI. As to conditions: dosage 320 g/ha. A digest of the protocol: as §2
Data set [7] concerns Viola tricolor (VIOTR). Description: Post-emergence herbicidal action against VIOTR. As to conditions: 320 g/ha. A digest of the protocol: as §3
Data set [8] deals with Echinochloa crus-galli (ECHCG). Description: Pre-emergence herbicidal action against ECHCG. As to conditions: dosage 320 g/ha. A digest of the protocol: as §2
In data set [9] the test system is Verconica persica (VERPE). Description: Post-emergence herbicidal action against VERPE. A digest of the protocol:
as §3

Data set [10] has as its system Polygonum convolvulus (POLCO). The experiment in a line: Post-emergence herbicidal action against POLCO. As to conditions: dosage 320 g/ha. In a few lines:
as §3

For data set [11], the system named is Pharbitis purpurea (PHBPU). Description: Pre-emergence herbicidal action against PHBPU. As to conditions: dosage 320 g/ha. In a few lines: as §2
Data set [12] relates to Setaria viridis (SETVI). Description: Post-emergence herbicidal action against SETVI. As to conditions: dosage 320 g/ha. A digest of the protocol:
as §3

Data set [13] has as its system Echinochloa crus-galli (ECHCG). The experiment in a line: Post-emergence herbicidal action against ECHCG. As to conditions: dosage 320 g/ha. In a few lines: as §3
Data set [14] concerns Amaranthus retroflexus (AMARE). The experiment in a line: Pre-emergence herbicidal action against AMARE. As to conditions: 320 g/ha, visual scoring after about 3 weeks vs untreated controls. A digest of the protocol: as §2
In data set [15] the test system is Viola tricolor (VIOTR). Description: Pre-emergence herbicidal action against VIOTR. A digest of the protocol:
as §2

For data set [16], the system named is Pharbitis purpurea (PHBPU). Description: Post-emergence herbicidal action against PHBPU. As to conditions: dosage 320 g/ha. A digest of the protocol: as §3
In data set [17] the test system is Glycine max (GLXMA). As to conditions: pre-emergence, 80 g/ha, crop plant compatibility, in comparison to untreated controls. In a few lines: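 Scoring: visual, % of untreated control, about 3 weeks after a pre-emergence application to the soil surface. Application used WP or EC formulations diluted in water with 0.5% additive at 600 l/ha; dosage levels are marked by suffixes a, b and c.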

Structures are written as SMILES.

In the case of `O=C(O)COc1nn(-c2ncccc2C(F)(F)F)c(-c2cncc(F)c2)c1Br` [Example I-230], the “Post-emergence action against ZEAMX in %” value in data set [1] came to 0%. Moreover, the “Post-emergence action against TRZAS in %” value in [2] was 10%. Also, in data set [3], the “Post-emergence action against ORYSA in %” value was 0%. Further, the “Pre-emergence action against POLCO in %” value in data set [4] (dosage 80 g/ha) stood at 80%; in [4] (dosage 320 g/ha) it was 90%. Further, the “Post-emergence action against AMARE in %” value in data set [5] worked out at 90%. Also, the “Pre-emergence action against SETVI in %” value in data set [6] is reported as 100%. Further, the “Post-emergence action against VIOTR in %” value in [7] was determined as 80%. For the same molecule, in data set [8], the “Pre-emergence action against ECHCG in %” value worked out at 90%. Further, the “Post-emergence action against VERPE in %” value is 80% in [9] (320 g/ha, VERPE) and 80% in data set [9] (dosage 80 g/ha). In addition, in data set [10], the “Post-emergence action against POLCO in %” value is 80%. Also, the “Pre-emergence action against PHBPU in %” value in data set [11] is reported as 90%. In [12], the “Post-emergence action against SETVI in %” value is reported as 80%. Besides, the “Post-emergence action against ECHCG in %” value in [13] is listed as 80%. Moreover, in [14], the “Pre-emergence action against AMARE in %” value is 80%. In addition, the “Pre-emergence action against VIOTR in %” value in [15] (320 g/ha, Viola tricolor) was 90%; in data set [15] (dosage 80 g/ha) it was 80%. Moreover, the “Post-emergence action against PHBPU in %” value in data set [16] was found to be 90%. Further, the “Pre-emergence action against GLXMA in %” value in [17] came to 20%.
